Source: paper PMC10303900, “Discovery of a New Chalcone-Trimethoxycinnamide Hybrid with Antimitotic Effect: Design, Synthesis, and Structure—Activity Relationship Studies” (Pharmaceuticals, 2023)
Like-named read-outs stand apart in the source and are kept apart here.

Experiments:
[1] = molecular target: T1, p53–MDM2 interaction (Homo sapiens, UniProt Q00987); assay: Yeast targeted screening assay of p53–MDM2 interaction; conditions: 10 μM, yeast cell-based assay, data not shown
T1 construct: expressed in transfected cells; host or cells: Saccharomyces cerevisiae strain CG379
T1 sequence (Q00987 whole entry): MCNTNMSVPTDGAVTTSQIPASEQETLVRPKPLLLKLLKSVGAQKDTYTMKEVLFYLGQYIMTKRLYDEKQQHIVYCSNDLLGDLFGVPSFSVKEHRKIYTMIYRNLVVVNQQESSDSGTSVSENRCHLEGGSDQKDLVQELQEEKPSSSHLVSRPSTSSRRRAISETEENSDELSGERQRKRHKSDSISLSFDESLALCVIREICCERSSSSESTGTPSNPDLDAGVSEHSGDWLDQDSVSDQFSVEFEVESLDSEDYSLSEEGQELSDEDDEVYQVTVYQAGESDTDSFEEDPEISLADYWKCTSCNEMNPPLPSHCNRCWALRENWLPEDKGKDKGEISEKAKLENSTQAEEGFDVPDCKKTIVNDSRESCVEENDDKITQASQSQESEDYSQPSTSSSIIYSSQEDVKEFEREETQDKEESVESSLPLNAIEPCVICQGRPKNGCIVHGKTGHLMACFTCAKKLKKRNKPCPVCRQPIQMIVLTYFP
Method: However, since CM-M345 (1) has been previously reported as a p53-MDM2 inhibitor by our research group, the effect of 10 μM of compounds 6, 7, and 13 on the p53–MDM2 interaction was analyzed using yeast cell-based assays.
Saccharomyces cerevisiae (strain CG379) expressing human wt p53 alone and combined with human MDM2 were obtained in previous works. For the expression of human proteins (routinely grown in minimal selective medium), cells were diluted to 0.05 OD600 in selective induction medium containing 2% (w/w) galactose, 1% (w/w) raffinose, 0.7% (w/w) yeast nitrogen base without amino acids from Difco (Quilaban, Sintra, Portugal), and all the amino acids required for yeast growth ([…]) except leucine and tryptophan. Yeast cells were incubated at 30 °C under continuous orbital shaking (200 rpm) with 10 µM compounds or 0.1% DMSO only, for approximately 42 h (time required by the control yeast, co-transformed with the empty vectors and incubated with DMSO only, to achieve 0.4 OD600). Yeast growth was analyzed by counting the number of colony-forming units (CFU) after 2 days of incubation at 30 °C on Sabouraud Dextrose Agar from Liofilchem (Frilabo, Porto, Portugal).

[2] = tested on: HCT116 cells; assay: Apoptosis detection via flow cytometry (Annexin V-FITC/PI); type: cell-based, human; conditions: HCT116, 48 h, vs untreated or DMSO
Method: Double labeling with annexin V-FITC and propidium iodide dyes was used to detect cells going through apoptotic events, using a flow cytometer in order to obtain insights into the mechanism by which compounds 6, 7, and 13 generate antiproliferative activity against colorectal carcinoma cells. For that, HCT116 cells were exposed to each compound for 48 h.
To evaluate apoptotic cell death, the “Annexin V-FITC Apoptosis Detection Kit” (eBioscience, Vienna, Austria) was used according to the manufacturer’s instructions. Briefly, 1.2 × 10^5 cells/well were seeded into 6-well plates, and 24 h later, cells were treated with compounds 6, 7, and 13. After 48 h, floating and adherent cells were collected, pelleted via centrifugation (1000 rpm, 5 min), and suspended in binding buffer. Annexin V-FITC was added and incubated for 10 min, protected from light. Cells were washed and resuspended in binding buffer, and 20 μg/mL of propidium iodide (PI) was added. Fluorescence was assessed using the BD Accuri™ C6 Plus flow cytometer (BD Biosciences, Qume Drive, San Jose, CA, USA), and the data were analyzed with the BD Accuri TM C6 Plus software (version 1.0.27.1, San Jose, CA, USA). At least 20,000 events per sample were collected.

[3] = tested on: MCF-7; assay: SRB growth inhibition assay, breast adenocarcinoma cells; type: cell-based; conditions: Homo sapiens, MCF7, 48 h
Method: (§1) A sulforhodamine B (SRB) assay was performed to evaluate the in vitro growth inhibitory activity of all synthesized hybrids, as well as intermediates in the human tumor cell lines of melanoma (A375-C5), breast adenocarcinoma (MCF-7), and colorectal carcinoma (HCT116), as well as on the non-tumor Human Pulmonary Alveolar Epithelial cell line (HPAEpiC). The concentration inducing 50% cell growth inhibition (GI50), was calculated. […] The overall results prompt us to further investigate the mechanism behind the cytotoxic activities of compounds 6, 7, and 13 in colorectal tumor cells. Moreover, in silico studies were performed, aiming to screen for drug-likeness.
(§2) A375-C5 (melanoma) and MCF-7 (breast adenocarcinoma) cell lines were obtained from the European Collection of Cell Culture, UK, and were grown in RPMI-1640 medium (Roswell Park Memorial Institute, Biochrom, Cambridge, UK) with 5% inactivated FBS (fetal bovine serum, Biochrom). HCT-116 (colon adenocarcinoma) cells were grown in DMEM medium (Dulbecco’s Modified Eagle’s, Biochrom) with 5% inactivated FBS. The non-tumor human pulmonary alveolar epithelial cells (HPAEpiC) were obtained from ScienCell Research Laboratories and grown in DMEM medium supplemented with 10% FBS and 1% non-essential amino acids (Sigma-Aldrich Co., Saint Louis, MO, USA). All cell lines were maintained in a humidified incubator (Hera Cell, Heraeus, Hanau, Germany) at 37 °C and with 5% CO2, and cell viability was regularly monitored using the exclusion trypan blue dye.
(§3) A total of 5.0 × 10^4 A375-C5, MCF-7, and HCT-116 cells, or 6.0 × 10^4 HPAEpiC cells were seeded in 96-well plates and incubated at 37 °C and 5% CO2 to allow for cell attachment. After 24 h, cells were treated with two-fold serial dilutions of test compounds (0–150 µM), or with DMSO as the compound solvent. In parallel, cells in a time-zero (T0) plate, without treatment, were fixed with 50% (m/v) trichloroacetic acid (TCA, Merck Millipore, Darmstadt, Germany), for 1 h at 4 °C, and then washed with distilled water and left to dry. Forty-eight hours after compound treatment, cells were fixed with 50% TCA and stained with SRB (Sigma-Aldrich Co., Ltd., Gillingham, UK) for 30 min at room temperature, followed by 5 rounds of washing with 1% (v/v) acetic acid (Merck Milli-pore, Darmstadt, Germany). SRB–protein complexes were then solubilized with […] Tris buffer (Sigma-Aldrich Co., Ltd., Gillingham, UK) for 30 min, and the absorbance was measured at 515 nm in a microplate reader (Biotek Synergy 2, BioTek Instruments, Inc., Winooski, VT, USA). A dose-response curve was obtained for each cell line, and the concentration that caused 50% cell growth inhibition (GI50) was calculated.

[4] = tested on: A375-C5, MCF-7 and HCT116 cell lines; assay: SRB growth inhibition, range over the tumor cell lines of Table 1; type: cell-based; conditions: Homo sapiens; SAR discussion, values of Table 1
Method: Considering the antiproliferative effects on tumor cells of all the studied compounds (Table 1), some SAR considerations may be undertaken (Figure 2). […] Nevertheless, this effect is not observed for the flavone derivatives 15 and 16. […] Additionally, with the screening of the synthetic intermediates, some conclusions can also be inferred (Figure 2).
as §3

[5] = tested on: HCT116 p53−/−; assay: SRB growth inhibition assay, p53 knocked-out colorectal cells; type: cell-based, human
Method: as §3

[6] = tested on: HPAEpiC; assay: SRB growth inhibition assay, non-tumor pulmonary alveolar epithelial cells; type: cell-based; conditions: Homo sapiens, Epithelial cell, 48 h
Method: as §1, §2, §3

[7] = tested on: HCT116 cells; assay: Mitotic arrest / mitotic index by phase-contrast microscopy; type: cell-based, human; conditions: HCT116, 24 h, phase contrast microscopy
Method: Disruption of cell cycle progression is considered one of the most common cytotoxic mechanisms of anticancer drugs. Moreover, the antimitotic effect of BP-M345 (2) has been previously reported. Therefore, compounds 6, 7, and 13 were tested for their capability to induce cell cycle arrest. HCT116 cells were exposed for 24 h to the compounds and then analyzed using phase contrast microscopy for morphological changes. Untreated and dimethyl sulfoxide (DMSO; solvent)-treated cells were used as negative controls. Cell exposure to nocodazole, an antimitotic agent, was used as a positive control. […] We thus calculated the mitotic index (MI), and observed a significant increase in MI in 7-treated cells (22.76 ± 4.30%) compared to the untreated (12.68 ± 1.98%) or DMSO-treated (12.81 ± 1.45%) (Figure 4c).
A total of 1.2 × 10^5 HCT-116 cells were grown in six-well dishes and treated for 24 h with 3.26 µM of compound 7. Cells treated with 1 µM nocodazole were used as a positive control for antimitotic activity. Untreated cells and cells treated with DMSO were included to exclude the cytotoxicity of the compound solvent. Mitotic index, and the percentage of mitotic cells over the total cell population were determined via cell-rounding under phase-contrast microscopy from at least ten random microscope fields.
For phase contrast microscopy images, a Nikon TE 2000-U microscope (Nikon, Amsterdam, The Netherlands) with a 10× objective was used, coupled to a DXM1200F digital camera with Nikon ACT-1 software (Melville, NY, USA). For fluorescence images, an Axio Observer Z.1 SD microscope (Carl Zeiss, Germany) was used, coupled to an AxioCam MR3, with the Plan Apochromatic 63×/NA 1.4 objective. The images were processed using ImageJ, version 1.51.

[8] = tested on: HCT116 (HCT116 p53+/+); assay: SRB growth inhibition assay, colorectal carcinoma cells; type: cell-based; conditions: Homo sapiens, HCT-116
Method: as §1, §2, §3

[9] = tested on: A375-C5; assay: Sulforhodamine B (SRB) growth inhibition assay, melanoma cells; type: cell-based; conditions: Homo sapiens, 48 h
Method: as §1, §2, §3

[10] = tested on: A375-C5; set-up: method as in Novais et al. [17]; conditions: 48 h; ref Novais et al. [17]; cited from earlier work
[11] = tested on: HFF-1 and HPAEpiC cells; set-up: method as in PMID 34170069, PMID 34885726; conditions: fibroblasts HFF-1 and HPAEpiC; ref [12],[17]; cited from earlier work
[12] = set-up: method as in PMID 34885726; conditions: used at 2×GI50; ref [17]; cited from earlier work
[13] = tested on: HCT116 (HCT116 p53+/+); conditions: 48 h, cited from earlier work
[14] = tested on: MCF-7; conditions: 48 h, cited from earlier work
[15] = tested on: HPAEpiC; set-up: method as in Novais et al. [17]; conditions: 48 h, non-tumor cells; ref Novais et al. [17]; cited from earlier work
[16] = molecular target: T1, p53–MDM2 interaction; set-up: method as in doi:10.1016/j.arabjc.2016.04.015; conditions: ref [16]; cited from earlier work

Compound | Effect on the p53–MDM2 interaction (reversal of the negative growth effect of MDM2 on p53) [1] | Apoptosis induction (Annexin V-positive cells) [2] | GI50 [3] | GI50 [4] | SI, selective index (GI50 of HCT116 p53−/−/GI50 of HCT116 p53+/+) [5] | GI50 ([5]; Homo sapiens, HCT-116, Table 2, 48 h) | GI50 [6] | Accumulation of bright and rounded (mitotic) cells [7] | GI50 ([8]; SRB, 48 h, read-out: GI50 HCT116) | GI50 ([8]; Table 2, 48 h, read-out: GI50 HCT116 p53+/+) | GI50 [9] | GI50 [10] | Cytotoxicity in non-tumor cell lines [11] | Mitotic index (MI) [12] | GI50 ([13]; ref Moreira et al. [12]) | GI50 ([14]; ref Novais et al. [17]) | GI50 [15] | Inhibition of the p53–MDM2 interaction in yeast-based assays [16] | GI50 ([13]; ref Pereira et al. [16]) | GI50 ([14]; ref Pereira et al. [16])
CCCc1c(OCCNC(=O)OC(C)(C)C)ccc(C(=O)/C=C/c2cc(OC)c(OC)c(OC)c2)c1O [Compound 6, tert-butyl(E)-(2-(3-hydroxy-2-propyl-4-(3-(3,4,5-trimethoxyphenyl)acryloyl)phenoxy)ethyl)carbamate] | none of the tested compounds significantly reversed the negative inhibitory growth effect of MDM2 on p53 | induces apoptotic tumor cell death | 39.8 ± 2.11 µM | 2.81 to 39.8 µM | 0.68 | 1.9 ± 0.3 µM | 9.6 ± 0.94 µM | not observed | 2.81 ± 0.65 µM | 2.81 ± 0.65 µM | 3.61 ± 1.11 µM |  |  |  |  |  |  |  |  | 
COc1cc(/C=C2\COC/C(=C\c3cc(OC)c(OC)c(OC)c3)C2=O)cc(OC)c1OC [BP-M345 (2)] |  |  |  |  |  |  |  |  |  |  |  | 0.24 ± 0.01 µM | low cytotoxicity | 29.8 ± 5.6% | 0.17 ± 0.01 µM | 0.45 ± 0.06 µM | 1.07 ± 0.16 µM |  |  | 
CCCc1c(OC)ccc(C(=O)/C=C/c2cc(OC)c(OC)c(OC)c2)c1O [CM-M345 (1), reference compound] |  |  |  |  | 1.31 |  | 6.1 ± 0.66 µM |  |  |  | 5.57 ± 0.06 µM |  |  |  |  |  |  | inhibitor of the interaction | 2.6 ± 0.2 µM | 2.3 ± 0.1 µM
